Molecular target: recombinant DYRK1A kinase (Homo sapiens (Human), UniProt Q13627)
Test: DYRK1A kinase assay (Ser/Thr 18 peptide Z-lyte FRET assay)
Assay type: biochemical
Settings: DYRK1A kinase activity; 15 μM ATP, 1 h room temperature; method text calls the value IC50
Method in brief: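 FRET Z-lyte read-out (coumarin/fluorescein ratio, % phosphorylation) after 1 h development; IC50 from non-linear curve fit. Reaction: 0.25 μg/mL recombinant human DYRK1A, Ser/Thr 18 peptide 4 μM, ATP 15 μM, compound in 11-point 1:3 series from 10 μM, 1 h, room temperature, duplicate wells.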

SMILES | EC50
CC(C)(C)CNc1ncc2c(-c3ccc4ncccc4c3)c[nH]c2n1 [Compound 1867, N-Neopentyl-5-(quinolin-6-yl)-7H-pyrrolo[2,3-d]pyrimidin-2-amine] | 69.7 nM
CC(C)(F)CNc1ncc2c(-c3ccc4ncccc4c3)c[nH]c2n1 [Compound 1869, N-(2-Fluoro-2-methylpropyl)-5-(quinolin-6-yl)-7H-pyrrolo[2,3-d]pyrimidin-2-amine] | 4 nM
c1cnc2ccc(-c3c[nH]c4nc(NC5CCOCC5)ncc34)cc2c1 [Compound 1890, 5-(Quinolin-6-yl)-N-(tetrahydro-2H-pyran-4-yl)-7H-pyrrolo[2,3-d]pyrimidin-2-amine] | 6 nM
CN1CCN(c2cccc(Nc3ncc4c(-c5ccc6ncccc6c5)c[nH]c4n3)c2)CC1 [Compound 1891, N-(3-(4-Methylpiperazin-1-yl)phenyl)-5-(quinolin-6-yl)-7H-pyrrolo[2,3-d]pyrimidin-2-amine] | 4.1 nM
c1cnc2ccc(-c3c[nH]c4nc(Nc5ccncc5)ncc34)cc2c1 [Compound 1892, N-(pyridin-4-yl)-5-(quinolin-6-yl)-7H-pyrrolo[2,3-d]pyrimidin-2-amine] | 0.8 nM
CN1CCN(c2cc(Nc3ncc4c(-c5ccc6ncccc6c5)c[nH]c4n3)ccn2)CC1 [Compound 1893, N-(2-(4-Methylpiperazin-1-yl)pyridin-4-yl)-5-(quinolin-6-yl)-7H-pyrrolo [2,3-d]pyrimidin-2-amine] | 0.5 nM
CN1CCN(c2ccc(Nc3ncc4c(-c5ccc6ncccc6c5)c[nH]c4n3)cn2)CC1 [Compound 1894, N-(6-(4-Methylpiperazin-1-yl)pyridin-3-yl)-5-(quinolin-6-yl)-7H-pyrrolo [2,3-d]pyrimidin-2-amine] | 2.3 nM
CN1CCN(c2ccc(CNc3ncc4c(-c5ccc6ncccc6c5)c[nH]c4n3)cn2)CC1 [Compound 1895, N-((6-(4-Methylpiperazin-1-yl)pyridin-3-yl)methyl)-5-(quinolin-6-yl)-7H-pyrrolo[2,3-d]pyrimidin-2-amine] | 3.6 nM
c1cnc2ccc(-c3ncc4c(-c5ccc6ncccc6c5)c[nH]c4n3)cc2c1 [Compound 1896, 6,6′-(7H-pyrrolo[2,3-d]pyrimidine-2,5-diyl)diquinoline] | 15.6 nM
Cn1cc(-c2ncnc3[nH]cc(-c4ccc5ncccc5c4)c23)cn1 [Compound 1897, 6-(4-(1-methyl-1H-pyrazol-4-yl)-7H-pyrrolo[2,3-d]pyrimidin-5-yl)quinoline] | 18.1 nM
c1cnc2ccc(-c3c[nH]c4ncnc(N[C@H]5CC[C@H](N6CCOCC6)CC5)c34)cc2c1 [Compound 1898, N-(trans-4-Morpholinocyclohexyl)-5-(quinolin-6-yl)-7H-pyrrolo[2,3-d]pyrimidin-4-amine] | 7.5 nM
Cc1nc(OCC2CCN(C)CC2)c2c(-c3ccc4ncccc4c3)c[nH]c2n1 [Compound 1899, 6-(2-Methyl-4-((1-methylpiperidin-4-yl)methoxy)-7H-pyrrolo[2,3-d]pyrimidin-5-yl)quinoline] | 18.6 nM
CC(C)(C)CNc1ncc2c(-c3ccc4nccnc4c3)c[nH]c2n1 [Compound 1911, N-Neopentyl-5-(quinoxalin-6-yl)-7H-pyrrolo[2,3-d]pyrimidin-2-amine] | 117 nM
C[C@@H](Nc1ncc2c(-c3ccc4nccnc4c3)c[nH]c2n1)C(F)(F)F [Compound 1916, (R)-5-(Quinoxalin-6-yl)-N-(1,1,1-trifluoropropan-2-yl)-7H-pyrrolo[2,3-d]pyrimidin-2-amine] | 6 nM
CN1CCC(Nc2ncc3c(-c4ccc5nccnc5c4)c[nH]c3n2)CC1 [Compound 1932, N-(1-Methylpiperidin-4-yl)-5-(quinoxalin-6-yl)-7H-pyrrolo[2,3-d]pyrimidin-2-amine] | 12.5 nM
c1cnc2cc(-c3c[nH]c4nc(NC5CCOCC5)ncc34)ccc2n1 [Compound 1934, 5-(Quinoxalin-6-yl)-N-(tetrahydro-2H-pyran-4-yl)-7H-pyrrolo[2,3-d]pyrimidin-2-amine] | 7.8 nM
CN1CCN(c2ccc(Nc3ncc4c(-c5ccc6nccnc6c5)c[nH]c4n3)cn2)CC1 [Compound 1938, N-(6-(4-Methylpiperazin-1-yl)pyridin-3-yl)-5-(quinoxalin-6-yl)-7H-pyrrolo [2,3-d]pyrimidin-2-amine] | 3.3 nM
CC(C)(F)CNc1ncc2c(-c3ccc4ncncc4c3)c[nH]c2n1 [Compound 1956, N-(2-Fluoro-2-methylpropyl)-5-(quinazolin-6-yl)-7H-pyrrolo[2,3-d]pyrimidin-2-amine] | 11.9 nM
CN1CCN(c2ccc(CNc3ncc4c(-c5ccc6ncncc6c5)c[nH]c4n3)cn2)CC1 [Compound 1982, N-((6-(4-Methylpiperazin-1-yl)pyridin-3-yl)methyl)-5-(quinazolin-6-yl)-7H-pyrrolo[2,3-d]pyrimidin-2-amine] | 2.9 nM

SMILES | EC50
CN1CCN(c2ncnc3ccc(-c4c[nH]c5nc(N)ncc45)cc23)CC1 [Compound 1986, 5-(4-(4-Methylpiperazin-1-yl)quinazolin-6-yl)-7H-pyrrolo[2,3-d]pyrimidin-2-amine] | 41.6 nM
CN1CCN(c2ncnc3ccc(-c4c[nH]c5nc(C6CC6)ncc45)cc23)CC1 [Compound 1987, 6-(2-Cyclopropyl-7H-pyrrolo[2,3-d]pyrimidin-5-yl)-4-(4-methylpiperazin-1-yl)quinazoline] | 70.4 nM
CN1CCC(Oc2cnc3ccc(-c4c[nH]c5nc(N)ncc45)cc3n2)CC1 [Compound 1994, 5-(3-((1-Methylpiperidin-4-yl)oxy)quinoxalin-6-yl)-7H-pyrrolo[2,3-d]pyrimidin-2-amine] | 13.8 nM
CN1CCN(c2cc(Nc3ncc4c(-c5ccn6ncc(-c7cccnc7)c6c5)c[nH]c4n3)ccn2)CC1 [Compound 2031, N-(2-(4-methylpiperazin-1-yl)pyridin-4-yl)-5-(3-(pyridin-3-yl)pyrazolo[1,5-a]pyridin-5-yl)-7H-pyrrolo[2,3-d]pyrimidin-2-amine] | 12.8 nM
CNc1ncc2c(-c3ccn4ncc(C(=O)N5CCN(C)CC5)c4c3)c[nH]c2n1 [Compound 2032, (5-(2-(Methylamino)-7H-pyrrolo[2,3-d]pyrimidin-5-yl)pyrazolo[1,5-a]pyridin-3-yl)(4-methylpiperazin-1-yl)methanone] | 58.8 nM
CO[C@H]1C[C@@H](Nc2ncc3c(-c4ccc5nccn5n4)c[nH]c3n2)C1 [Compound 2053, 5-(Imidazo[1,2-b]pyridazin-6-yl)-N-(cis-3-methoxycyclobutyl)-7H-pyrrolo [2,3-d]pyrimidin-2-amine] | 1.9 nM
CO[C@H]1C[C@@H](Nc2ncc3c(-c4ccn5nccc5n4)c[nH]c3n2)C1 [Compound 2070, N-(cis-3-Methoxycyclobutyl)-5-(pyrazolo[1,5-a]pyrimidin-5-yl)-7H-pyrrolo [2,3-d]pyrimidin-2-amine] | 2.9 nM
CO[C@H]1C[C@@H](Nc2ncc3c(-c4ccc5ncccc5c4)c[nH]c3n2)C1 [Compound 2075, N-(cis-3-Methoxycyclobutyl)-5-(quinolin-6-yl)-7H-pyrrolo[2,3-d]pyrimidin-2-amine] | 8 nM
CO[C@H]1C[C@@H](Nc2ncc3c(-c4ccc5nccnc5c4)c[nH]c3n2)C1 [Compound 2076, N-(cis-3-Methoxycyclobutyl)-5-(quinoxalin-6-yl)-7H-pyrrolo[2,3-d]pyrimidin-2-amine] | 5.7 nM
FC(F)(F)O[C@H]1CC[C@@H](Nc2ncc3c(-c4ccn5nccc5c4)c[nH]c3n2)CC1 [Compound 2104, 5-(Pyrazolo[1,5-a]pyridin-5-yl)-N-(cis-4-(trifluoromethoxy)cyclohexyl)-7H-pyrrolo[2,3-d]pyrimidin-2-amine] | 690 nM
CCO[C@H]1CC[C@@H](Nc2ncc3c(-c4cc(F)c5nccn5c4)c[nH]c3n2)CC1 [Compound 2129, N-(cis-4-Ethoxycyclohexyl)-5-(8-fluoroimidazo[1,2-a]pyridin-6-yl)-7H-pyrrolo[2,3-d]pyrimidin-2-amine] | 2.4 nM
CCO[C@H]1CC[C@@H](Nc2ncc3c(-c4ccc5nnn(C)c5c4)c[nH]c3n2)CC1 [Compound 2143, N-(cis-4-Ethoxycyclohexyl)-5-(1-methyl-1H-benzo[d][1,2,3]triazol-6-yl)-7H-pyrrolo[2,3-d]pyrimidin-2-amine] | 9.9 nM
CCO[C@H]1CC[C@@H](Nc2ncc3c(-c4ccc5nccn5n4)c[nH]c3n2)CC1 [Compound 2145, N-(cis-4-Ethoxycyclohexyl)-5-(imidazo[1,2-b]pyridazin-6-yl)-7H-pyrrolo [2,3-d]pyrimidin-2-amine] | 3 nM
CCO[C@H]1CC[C@@H](Nc2ncc3c(-c4ccn5nccc5n4)c[nH]c3n2)CC1 [Compound 2162, N-(cis-4-Ethoxycyclohexyl)-5-(pyrazolo[1,5-a]pyrimidin-5-yl)-7H-pyrrolo [2,3-d]pyrimidin-2-amine] | 8.5 nM
[2H]C([2H])([2H])O[C@H]1CC[C@@H](Nc2ncc3c(-c4ccc5nccn5n4)c[nH]c3n2)CC1 [Compound 2171, 5-(Imidazo[1,2-b]pyridazin-6-yl)-N-(cis-4-(methoxy-d3)cyclohexyl)-7H-pyrrolo[2,3-d]pyrimidin-2-amine] | 1.5 nM
[2H]C([2H])([2H])O[C@H]1CC[C@@H](Nc2ncc3c(-c4ccc5nnn(C)c5c4)c[nH]c3n2)CC1 [Compound 2172, N-(cis-4-(Methoxy-d3)cyclohexyl)-5-(1-methyl-1H-benzo[d][1,2,3]triazol-6-yl)-7H-pyrrolo[2,3-d]pyrimidin-2-amine] | 5 nM
[2H]C([2H])([2H])O[C@H]1CC[C@@H](Nc2ncc3c(-c4ccc5nccnc5c4)c[nH]c3n2)CC1 [Compound 2173, N-(cis-4-(Methoxy-d3)cyclohexyl)-5-(quinoxalin-6-yl)-7H-pyrrolo[2,3-d]pyrimidin-2-amine] | 10.5 nM
COc1nc(N[C@H](C)C(F)(F)F)nc2[nH]cc(-c3ccc4nccn4c3)c12 [Compound 2174, (R)-5-(Imidazo[1,2-a]pyridin-6-yl)-4-methoxy-N-(1,1,1-trifluoropropan-2-yl)-7H-pyrrolo[2,3-d]pyrimidin-2-amine] | 1.6 nM
